Test results reported in ChEMBL document CHEMBL1201862, “PubChem BioAssay data set” (2004).
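Growth conditions: 96-well plates. Treatment: test compound, 48 hours, 5 concentrations. Analysis: linear interpolation between bracketing concentrations; unreached endpoints set to highest concentration. The concentration for 50% growth inhibition is given as GI50.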 Calls of active or inactive are those of the source. No stated cut-off is given here; in the data, active = GI50 up to about 1.1 µM and inactive = higher.

Experiments:
Assay in all cases: growth of human tumour cells (NCI), 48 h
BT-549 = test system: BT-549
U-251 = test system: U-251
K562 = test system: K562
KM12 = test system: KM12
OVCAR-3 = test system: OVCAR-3
UACC-257 = test system: UACC-257
SK-MEL-2 = test system: SK-MEL-2
RPMI-8226 = test system: RPMI-8226
NCI-H23 = test system: NCI-H23
Hs-578T = test system: Hs-578T
M14 = test system: M14
PC-3 = test system: PC-3
HT-29 = test system: HT-29
MDA-N = test system: MDA-N
SF-539 = test system: SF-539
LOX IMVI = test system: LOX IMVI
786-0 = test system: 786-0
CAKI-1 = test system: CAKI-1
SN12C = test system: SN12C
SR = test system: SR

SMILES	GI50 (BT-549)	GI50 (U-251)	GI50 (K562)	GI50 (KM12)	GI50 (OVCAR-3)	GI50 (UACC-257)	GI50 (SK-MEL-2)	GI50 (RPMI-8226)	GI50 (NCI-H23)	GI50 (Hs-578T)	GI50 (M14)	GI50 (PC-3)	GI50 (HT-29)	GI50 (MDA-N)	GI50 (SF-539)	GI50 (LOX IMVI)	GI50 (786-0)	GI50 (CAKI-1)	GI50 (SN12C)	GI50 (SR)
Fc1ccc(C(OCCN2CCC3CCC(C2)N3CCCc2ccccc2)c2ccc(F)cc2)cc1 (configuration not stated)	8.89 µM (inactive)	4.33 µM (inactive)	2.05 µM (inactive)	3.11 µM (inactive)	3.55 µM (inactive)	2.92 µM (inactive)	3.48 µM (inactive)	2.48 µM (inactive)	4.1 µM (inactive)	4.58 µM (inactive)	2.1 µM (inactive)	2.98 µM (inactive)	3.3 µM (inactive)	3.27 µM (inactive)	1.35 µM (inactive)	3.83 µM (inactive)	2.41 µM (inactive)	4.86 µM (inactive)	3.57 µM (inactive)	–
CCCCS(=O)(=O)CCC(N)C(=O)O (configuration not stated)	> 100 µM (inactive)	> 100 µM (inactive)	> 100 µM (inactive)	> 100 µM (inactive)	> 100 µM (inactive)	> 100 µM (inactive)	> 100 µM (inactive)	–	> 100 µM (inactive)	> 100 µM (inactive)	> 100 µM (inactive)	> 100 µM (inactive)	> 100 µM (inactive)	> 100 µM (inactive)	> 100 µM (inactive)	–	> 100 µM (inactive)	> 100 µM (inactive)	> 100 µM (inactive)	> 100 µM (inactive)
CC1=C(C)C(=O)C(C2=CC(=O)c3ccccc3C2=O)=C(C2=CC(=O)c3ccccc3C2=O)C1=O	18.7 µM (inactive)	6.43 µM (inactive)	–	10.4 µM (inactive)	–	8.2 µM (inactive)	5.9 µM (inactive)	–	8.13 µM (inactive)	3.62 µM (inactive)	8.49 µM (inactive)	5.74 µM (inactive)	0.684 µM (active)	0.82 µM (active)	6.35 µM (inactive)	1.39 µM (inactive)	7.46 µM (inactive)	2.95 µM (inactive)	2.61 µM (inactive)	–
COc1ccc(N2C(=O)/C(=C\c3cc(OC)c(OC)c(OC)c3)SC2c2ccccc2)cc1 (configuration not stated)	26.1 µM (inactive)	56.5 µM (inactive)	38.3 µM (inactive)	51.6 µM (inactive)	> 100 µM (inactive)	57.3 µM (inactive)	> 100 µM (inactive)	31.3 µM (inactive)	33.1 µM (inactive)	50.9 µM (inactive)	55.7 µM (inactive)	–	> 100 µM (inactive)	25.4 µM (inactive)	> 100 µM (inactive)	29.6 µM (inactive)	> 100 µM (inactive)	> 100 µM (inactive)	> 100 µM (inactive)	28.4 µM (inactive)
COc1cc(OC)nc(Nc2c(C#N)c3nc4ccccc4n3c3ccccc23)n1	15.8 µM (inactive)	31.3 µM (inactive)	> 100 µM (inactive)	45.9 µM (inactive)	31.3 µM (inactive)	52.7 µM (inactive)	25.8 µM (inactive)	> 100 µM (inactive)	32.1 µM (inactive)	47.6 µM (inactive)	> 100 µM (inactive)	40.3 µM (inactive)	> 100 µM (inactive)	> 100 µM (inactive)	17.6 µM (inactive)	21.4 µM (inactive)	16.5 µM (inactive)	29.1 µM (inactive)	–	–
CCC(C)C(NC(=O)C(CCCC[N+](=N)N)NC(=O)C(CCCC[N+](=N)N)NC(=O)c1ccc(OC)cc1)C(=O)NC(CCCC[N+](=N)N)C(=O)N1CCCC1C(=O)NC(CCCCN)C(=O)NC(CC(C)C)C(N)=O (configuration not stated)	> 100 µM (inactive)	> 100 µM (inactive)	> 100 µM (inactive)	> 100 µM (inactive)	> 100 µM (inactive)	> 100 µM (inactive)	–	> 100 µM (inactive)	> 100 µM (inactive)	> 100 µM (inactive)	> 100 µM (inactive)	> 100 µM (inactive)	> 100 µM (inactive)	> 100 µM (inactive)	> 100 µM (inactive)	> 100 µM (inactive)	> 100 µM (inactive)	> 100 µM (inactive)	> 100 µM (inactive)	> 100 µM (inactive)
O=c1[nH]nc(Cc2ccccc2)n1CCO	> 100 µM (inactive)	> 100 µM (inactive)	> 100 µM (inactive)	> 100 µM (inactive)	> 100 µM (inactive)	> 100 µM (inactive)	> 100 µM (inactive)	> 100 µM (inactive)	> 100 µM (inactive)	> 100 µM (inactive)	> 100 µM (inactive)	> 100 µM (inactive)	> 100 µM (inactive)	> 100 µM (inactive)	> 100 µM (inactive)	> 100 µM (inactive)	> 100 µM (inactive)	> 100 µM (inactive)	> 100 µM (inactive)	–
N#CCCSC(=S)C1CCCC1=N (configuration not stated)	> 100 µM (inactive)	> 100 µM (inactive)	> 100 µM (inactive)	> 100 µM (inactive)	> 100 µM (inactive)	> 100 µM (inactive)	> 100 µM (inactive)	> 100 µM (inactive)	> 100 µM (inactive)	> 100 µM (inactive)	> 100 µM (inactive)	> 100 µM (inactive)	> 100 µM (inactive)	> 100 µM (inactive)	> 100 µM (inactive)	–	> 100 µM (inactive)	> 100 µM (inactive)	> 100 µM (inactive)	–
C/C(=C/CC[C@]1(CO)CC[C@]2(C)[C@H](CC[C@@H]3[C@@]4(C)CC[C@H](OC5OC(CO)C(O)C(O)C5OC5OC(CO)C(O)C(O)C5O)C(C)(C)[C@@H]4CC[C@]32C)[C@H]1O)CO (some centres not stated)	> 100 µM (inactive)	> 100 µM (inactive)	> 100 µM (inactive)	> 100 µM (inactive)	> 100 µM (inactive)	> 100 µM (inactive)	–	> 100 µM (inactive)	> 100 µM (inactive)	> 100 µM (inactive)	> 100 µM (inactive)	> 100 µM (inactive)	> 100 µM (inactive)	> 100 µM (inactive)	> 100 µM (inactive)	> 100 µM (inactive)	> 100 µM (inactive)	> 100 µM (inactive)	> 100 µM (inactive)	> 100 µM (inactive)
Cc1cc2c(cc1Cl)Sc1n[nH]c(=O)n1S2(=O)=O	> 100 µM (inactive)	> 100 µM (inactive)	> 100 µM (inactive)	> 100 µM (inactive)	95.5 µM (inactive)	> 100 µM (inactive)	–	–	> 100 µM (inactive)	> 100 µM (inactive)	> 100 µM (inactive)	> 100 µM (inactive)	> 100 µM (inactive)	> 100 µM (inactive)	> 100 µM (inactive)	> 100 µM (inactive)	> 100 µM (inactive)	> 100 µM (inactive)	> 100 µM (inactive)	–
C=C1N(S(=O)(=O)c2ccc(C)cc2)C(=O)OCC12CCCC2	> 100 µM (inactive)	76 µM (inactive)	94.2 µM (inactive)	> 100 µM (inactive)	52.4 µM (inactive)	80.4 µM (inactive)	–	> 100 µM (inactive)	59.3 µM (inactive)	32.5 µM (inactive)	> 100 µM (inactive)	34.6 µM (inactive)	54.7 µM (inactive)	> 100 µM (inactive)	> 100 µM (inactive)	> 100 µM (inactive)	> 100 µM (inactive)	94.4 µM (inactive)	–	45.7 µM (inactive)
COc1ccc(-n2c(C)nc3ccc(/N=C/c4ccccc4)cc3c2=O)cc1	> 100 µM (inactive)	> 100 µM (inactive)	> 100 µM (inactive)	> 100 µM (inactive)	> 100 µM (inactive)	> 100 µM (inactive)	–	51.2 µM (inactive)	> 100 µM (inactive)	> 100 µM (inactive)	–	> 100 µM (inactive)	> 100 µM (inactive)	> 100 µM (inactive)	–	> 100 µM (inactive)	> 100 µM (inactive)	> 100 µM (inactive)	> 100 µM (inactive)	> 100 µM (inactive)
NCC[Se][Se]CCN	14.4 µM (inactive)	7.41 µM (inactive)	16.6 µM (inactive)	8.05 µM (inactive)	13.9 µM (inactive)	7.06 µM (inactive)	7.57 µM (inactive)	12.9 µM (inactive)	15 µM (inactive)	12.4 µM (inactive)	3.83 µM (inactive)	10.9 µM (inactive)	10 µM (inactive)	10.9 µM (inactive)	10.6 µM (inactive)	–	14 µM (inactive)	10.7 µM (inactive)	6.76 µM (inactive)	10.1 µM (inactive)
COc1ccc(NC(=S)Nc2c(C)n(C)n(-c3ccccc3)c2=O)cc1	> 100 µM (inactive)	> 100 µM (inactive)	> 100 µM (inactive)	> 100 µM (inactive)	> 100 µM (inactive)	> 100 µM (inactive)	–	> 100 µM (inactive)	> 100 µM (inactive)	> 100 µM (inactive)	> 100 µM (inactive)	> 100 µM (inactive)	> 100 µM (inactive)	> 100 µM (inactive)	> 100 µM (inactive)	> 100 µM (inactive)	> 100 µM (inactive)	> 100 µM (inactive)	–	–
COc1cc([C@@H]2c3cc4c(cc3C[C@H]3COC(=O)[C@@H]32)OCO4)cc(OC)c1OC [DESOXYPODOPHYLLOTOXIN]	< 0.01 µM (active)	0.00634 µM (active)	0.0074 µM (active)	–	–	0.00828 µM (active)	0.0074 µM (active)	–	0.00714 µM (active)	0.00204 µM (active)	0.004 µM (active)	0.00353 µM (active)	–	0.00222 µM (active)	–	–	0.00372 µM (active)	0.00711 µM (active)	0.00995 µM (active)	0.00376 µM (active)
